From patent US10851067B2, “Kv7 channel activators compositions and methods of use” (Knopp Biosciences LLC, priority 2018, dated 2020)

The compounds below were run against Kv7.2/7.3 (Homo sapiens, UniProt O43525+O43526) (assay: Kv7.2/7.3 Activation Assay, QPatch single concentration screen). Details: Kv7.2/Kv7.3 co-expressing HEK cells, compound concentration 3 μM, steady-state current at end of 2 s pulse to −30 mV.
Type: cell-based
Design: host or cells: HEK cells, tetracycline-inducible expression; key: 1.2-2.9 (+); 3-3.9 (++); >4 (+++) fold increase over baseline; O represents open channel at holding potential
Outline: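 Tetracycline-induced HEK cells expressing human Kv7.2/7.3, recorded 24 h post-induction by automated planar patch clamp. From −80 mV, 2 s steps to −30 mV then 100 ms to −120 mV; compound tested at 3 μM (0.1% DMSO). Steady-state current at end of −30 mV step gives fold increase over baseline.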

Kv7.2/7.3 Activity: increase over baseline in current | SMILES
++ (3-3.9 (++)) | C[C@H](CC(=O)Nc1nc2c(F)cc(C(C)(C)O)cc2n1C1CCC1)c1ccccc1 [Example 412, (R)-N-(1-cyclobutyl-4-fluoro-6-(2-hydroxypropan-2-yl)-1H-benzo[d]imidazol-2-yl)-3-phenylbutanamide]
++ (3-3.9 (++)) | COc1c(Cl)c(Cl)c(Cl)c2nc(NC(=O)CC(C)(C)C)n(C3CCC3)c12 [Example 414, 3,3-dimethyl-N-(4,5,6-trichloro-1-cyclobutyl-7-methoxy-1H-benzo[d]imidazol-2-yl)butanamide]
++ (3-3.9 (++)) | CC(C)(C)CC(=O)Nc1nc2ccc(F)cc2n1C1CCC1 [Example 417, N-(1-cyclobutyl-6-fluoro-1H-benzo[d]imidazol-2-yl)-3,3-dimethylbutanamide]
+ (1.2-2.9 (+)) | CC1(n2c(NC(=O)CC(C)(C)C(F)(F)F)nc3c(OC(F)F)cc(C#N)cc32)CCC1 [Example 419, N-(6-cyano-4-(difluoromethoxy)-1-(1-methylcyclobutyl)-1H-benzo[d]imidazol-2-yl)-4,4,4-trifluoro-3,3-dimethylbutanamide]
+ (1.2-2.9 (+)) | CC(C)(C)CC(=O)Nc1nc2c(F)cc(C#N)cc2n1C(C)(C)C [Example 420, N-(1-(tert-butyl)-6-cyano-4-fluoro-1H-benzo[d]imidazol-2-yl)-3,3-dimethylbutanamide]
+ (1.2-2.9 (+)) | CC1(n2c(NC(=O)CC(O)(CF)CF)nc3ccc(OC(F)F)c(F)c32)CCC1 [Example 423, N-(6-(difluoromethoxy)-7-fluoro-1-(1-methylcyclobutyl)-1H-benzo[d]imidazol-2-yl)-4-fluoro-3-(fluoromethyl)-3-hydroxybutanamide]
O | CC(C)(C)CC(=O)Nc1nc2cc(F)c(C3(O)CCC3)c(F)c2n1C1CCC1 [Example 424, N-(1-cyclobutyl-5,7-difluoro-6-(1-hydroxycyclobutyl)-1H-benzo[d]imidazol-2-yl)-3,3-dimethylbutanamide]
++ (3-3.9 (++)) | CC(C)(C)CC(=O)Nc1nc2ccc(C(C)(C)O)cc2n1C12CC(C1)C2 [Example 425, N-(1-(bicyclo[1.1.1]pentan-1-yl)-6-(2-hydroxypropan-2-yl)-1H-benzo[d]imidazol-2-yl)-3,3-dimethylbutanamide]
++ (3-3.9 (++)) | CC(C)(CC(=O)Nc1nc2ccc(OC(F)F)cc2n1C(C)(C)C)C1CC1 [Example 427, N-(1-(tert-butyl)-6-(difluoromethoxy)-1H-benzo[d]imidazol-2-yl)-3-cyclopropyl-3-methylbutanamide]
++ (3-3.9 (++)) | CC(C)(CC(=O)Nc1nc2c(F)cc(C#N)cc2n1C12CC(C1)C2)C(F)(F)F [Example 431, N-(1-(bicyclo[1.1.1]pentan-1-yl)-6-cyano-4-fluoro-1H-benzo[d]imidazol-2-yl)-4,4,4-trifluoro-3,3-dimethylbutanamide]
++ (3-3.9 (++)) | COc1cc(F)c2nc(NC(=O)CC(C)(C)C(F)(F)F)n(C3(C)CCC3)c2c1 [Example 433, 4,4,4-trifluoro-N-(4-fluoro-6-methoxy-1-(1-methylcyclobutyl)-1H-benzo[d]imidazol-2-yl)-3,3-dimethylbutanamide]
O | CC(C)(O)c1ccc2nc(NC(=O)Cc3cccc(F)c3)n(C3(C)CCC3)c2c1 [Example 435, 2-(3-fluorophenyl)-N-(6-(2-hydroxypropan-2-yl)-1-(1-methylcyclobutyl)-1H-benzo[d]imidazol-2-yl)acetamide]
++ (3-3.9 (++)) | CC(C)(C)CC(=O)Nc1nc2cc(F)cc(C#N)c2n1C1(C)CCC1 [Example 436, N-(7-cyano-5-fluoro-1-(1-methylcyclobutyl)-1H-benzo[d]imidazol-2-yl)-3,3-dimethylbutanamide]
++ (3-3.9 (++)) | CC(C)(C)CC(=O)Nc1nc2cc(F)c(C#N)cc2n1C1(C)CCC1 [Example 437, N-(6-cyano-5-fluoro-1-(1-methylcyclobutyl)-1H-benzo[d]imidazol-2-yl)-3,3-dimethylbutanamide]
O | CC(C)(C)CC(=O)Nc1nc2c(F)cc(C(C)(C)O)c(F)c2n1C1CCC1 [Example 438, N-(1-cyclobutyl-4,7-difluoro-6-(2-hydroxypropan-2-yl)-1H-benzo[d]imidazol-2-yl)-3,3-dimethylbutanamide]
+ (1.2-2.9 (+)) | CC(C)(C)CC(=O)Nc1nc2ccc(Cl)c(C#N)c2n1C1CCC1 [Example 439, N-(6-chloro-7-cyano-1-cyclobutyl-1H-benzo[d]imidazol-2-yl)-3,3-dimethylbutanamide]
+ (1.2-2.9 (+)) | CC(C)(C)CC(=O)Nc1nc2ccc(C(C)(C)O)cc2n1CC(F)(F)F [Example 440, N-(6-(2-hydroxypropan-2-yl)-1-(2,2,2-trifluoroethyl)-1H-benzo[d]imidazol-2-yl)-3,3-dimethylbutanamide]
++ (3-3.9 (++)) | C[C@H](C(=O)Nc1nc2c(F)cc(C(C)(C)O)cc2n1C1CCC1)C(C)(C)C [Example 443, (S)-N-(1-cyclobutyl-4-fluoro-6-(2-hydroxypropan-2-yl)-1H-benzo[d]imidazol-2-yl)-2,3,3-trimethylbutanamide]
++ (3-3.9 (++)) | CC(C)(C)n1c(NC(=O)CC(C)(C)C(F)(F)F)nc2ccc(C#N)c(F)c21 [Example 444, N-(1-(tert-butyl)-6-cyano-7-fluoro-1H-benzo[d]imidazol-2-yl)-4,4,4-trifluoro-3,3-dimethylbutanamide]
++ (3-3.9 (++)) | CC(C)(C)CC(=O)Nc1nc2c(F)cc(C(C)(O)C3CC3)cc2n1C1CCC1 (centres unmarked) [Example 445, N-(1-cyclobutyl-6-(1-cyclopropyl-1-hydroxyethyl)-4-fluoro-1H-benzo[d]imidazol-2-yl)-3,3-dimethylbutanamide]
++ (3-3.9 (++)) | [2H]C([2H])([2H])C(CC(=O)Nc1nc2ccc(C(C)(C)O)cc2n1C1CCC1)(C([2H])([2H])[2H])C([2H])([2H])[2H] [Example 448, N-(1-cyclobutyl-6-(2-hydroxypropan-2-yl)-1H-benzo[d]imidazol-2-yl)-3,3-bis(methyl-d3)butanamide]
++ (3-3.9 (++)) | CC(C)(C)CC(=O)Nc1nc2cc(F)ccc2n1C1CCC1 [Example 449, N-(1-cyclobutyl-5-fluoro-1H-benzo[d]imidazol-2-yl)-3,3-dimethylbutanamide]
+ (1.2-2.9 (+)) | CC(C)(C)CC(=O)Nc1nc2cc(C(C)(C)O)c(C(F)(F)F)cc2n1C1CCC1 [Example 450, N-(1-cyclobutyl-5-(2-hydroxypropan-2-yl)-6-(trifluoromethyl)-1H-benzo[d]imidazol-2-yl)-3,3-dimethylbutanamide]
O | CC(C)(C)CC(=O)Nc1nc2ccc(C3(O)CCC3)c(F)c2n1C1CCC1 [Example 451, N-(1-cyclobutyl-7-fluoro-6-(1-hydroxycyclobutyl)-1H-benzo[d]imidazol-2-yl)-3,3-dimethylbutanamide]
++ (3-3.9 (++)) | CC(C)(CC(=O)Nc1nc2cc(F)cc(F)c2n1C1CCC1)C(F)(F)F [Example 453, N-(1-cyclobutyl-5,7-difluoro-1H-benzo[d]imidazol-2-yl)-4,4,4-trifluoro-3,3-dimethylbutanamide]

SMILES | Kv7.2/7.3 Activity: increase over baseline in current
CC(C)(O)c1cc(F)c2nc(NC(=O)CSC(F)(F)F)n(C3CCC3)c2c1 [Example 413, N-(1-cyclobutyl-4-fluoro-6-(2-hydroxypropan-2-yl)-1H-benzo[d]imidazol-2-yl)-2-((trifluoromethyl)thio)acetamide] | +++ (>4 (+++) fold increase over baseline)
CC(C)(C)CC(=O)Nc1nc2c(F)cc(C3(O)CCC3)cc2n1C1CCC1 [Example 421, N-(1-cyclobutyl-4-fluoro-6-(1-hydroxycyclobutyl)-1H-benzo[d]imidazol-2-yl)-3,3-dimethylbutanamide] | +++ (>4 (+++) fold increase over baseline)
CC(C)(CC(=O)Nc1nc2cccc(C#N)c2n1C1(C)CCC1)C1CC1 [Example 426, N-(7-cyano-1-(1-methylcyclobutyl)-1H-benzo[d]imidazol-2-yl)-3-cyclopropyl-3-methylbutanamide] | +++ (>4 (+++) fold increase over baseline)
COc1ccc2nc(NC(=O)CC(C)(C)C)n(C3CCC3)c2c1F [Example 429, N-(1-cyclobutyl-7-fluoro-6-methoxy-1H-benzo[d]imidazol-2-yl)-3,3-dimethylbutanamide] | +++ (>4 (+++) fold increase over baseline)
CC(C)(C)CC(=O)Nc1nc2ccc(C3(F)COC3)cc2n1C1CCC1 [Example 432, N-(1-cyclobutyl-6-(3-fluorooxetan-3-yl)-1H-benzo[d]imidazol-2-yl)-3,3-dimethylbutanamide] | +++ (>4 (+++) fold increase over baseline)
CC(C)(CC(=O)Nc1nc2ccc(OC(F)F)cc2n1C1(C)CCC1)C1CC1 [Example 434, 3-cyclopropyl-N-(6-(difluoromethoxy)-1-(1-methylcyclobutyl)-1H-benzo[d]imidazol-2-yl)-3-methylbutanamide] | +++ (>4 (+++) fold increase over baseline)
COC(=O)Cc1c(F)ccc2nc(NC(=O)CC(C)(C)C)n(C3CCC3)c12 [Example 447, methyl 2-(1-cyclobutyl-2-(3,3-dimethylbutanamido)-6-fluoro-1H-benzo[d]imidazol-7-yl)acetate] | +++ (>4 (+++) fold increase over baseline)
